The source of these data is US12544382B2, “2, 4, 6-tri-substituted pyrimidine compound as ATR kinase inhibitor” (BEIJING TIDE PHARMACEUTICAL CO., LTD., priority 2019, dated 2026).

Data set [1] addresses ATR kinase (Homo sapiens (Human), UniProt Q13535). In words: ATR kinase activity assay (time-resolved fluorescence, p53 substrate phosphorylation). It counts as biochemical. The method, then: Biotinylated protein derived from p53 (Eurofins, art. No.: 14-952) was phosphorylated with ATR kinase. The amount of phosphorylated protein was determined by time-resolved fluorescence in this assay. The amount of phosphorylated protein was detected by anti-p53-phospho-(serine 15)-K-specific antibody (Cisbio, art. No.: 61GSTDLA) and d2 labeled anti-GST antibody (Cisbio, art. No. 61P08KAE). Before the experiment, the following working solution was prepared as required: 1× reaction buffer (20 mM HEPES PH8.0, 1% glycerol, 0.01% Brij-35), dilution buffer (20 mM HEPES PH8.0, 1% glycerol, 0.01% Brij-35, 5 mM DTT and 1% BSA), stop solution (20 mM HEPES PH8.0, 1% glycerol, 0.01% Brij-35, 250 mM EDTA), detection buffer (50 mM HEPES pH7.0, 150 mM NaCl, 267 mM KF, 0.1% sodium cholate, 0.01% Tween-20, 0.0125% sodium azide). The reagents used above are purchased from Sigma or Invitrogen, except for those where the manufacturer was mentioned.
Operations are as follows:
4× gradient dilution of compound solutions was prepared with 1× reaction buffer to obtain 9 compound solutions of different concentrations, and 2.5 μL 4× gradient dilution of compound solutions was added to a 384-well analysis plate (784075, Greiner). 4× p53 substrate working solution (40 nM) was prepared with 1× reaction buffer, and 2.5 μL 4× p53 substrate working solution was added to the 384-well analysis plate. 4×ATR/ATRIP working solution (12.8 ng/μL) was prepared with dilution buffer, and 2.5 μL 4×pATR/ATRIP working solution was added to the 384-well analysis plate. 4×ATP working solution (2 mM) was prepared with deionized water, 2.5 μL 4×ATP working solution was added to the 384-well analysis plate, and incubated at room temperature in dark for 30 minutes. 5 μL stop solution was added to the 384 analysis plate. Finally, 5 μL test mixture (0.084 ng/μL Anti-phospho-p53(ser15)-K and 5 ng/μL Anti-GST-d2) was added to the 384 well analysis plate, incubated overnight at room temperature, and the fluorescence signal was detected with ENVISION (Perkinelmer) instrument (excitation wavelength: 320 nm, emission wavelength: 665 nm and 615 nm). The inhibition rate in each well was calculated by the fluorescence intensity value of each hole: ER (Emission Ratio)=(Fluorescence intensity at 665 nm/Fluorescence intensity at 615 nm); inhibition rate=(ER positive-ER test compound)/(ER positive-ER negative)×100%, the IC50 value of compounds were calculated by standard parameter fitting software (GraphPad Prism 6.0).

Data set [2] relates to TOV21G (ovarian cancer) cells. In words: In vitro cell proliferation inhibition assay (CellTiter-Glo), TOV21G. It counts as cell-based, human. Conditions: 120 hours. The method, then:
(§1) By detecting the effect of compound on cell activity in vitro in the tumor cell lines TOV21G (ovarian cancer) and MV4-11 (leukemia), the effect of compound inhibiting cell proliferation was studied in this assay.
(§2) TOV21G cells and MV4-11 cells were purchased from American Type Culture Collection (ATCC).
TOV21G cells were cultured in MCDB105/M199 medium (containing 15% […]), and used for testing when the cell confluence reaches 85% or more. Each well of a 96-well culture plate was inoculated with about 1000 cells, cultured for 24 hours, and treated with different concentrations (0-10 μM) of compound solution to be tested in triplex. Blank wells (contains medium only) and control wells (seeded cells was not treated with drug) were set. Cells were cultured for 120 hours, 40 μL Cell Titer-Glo solution (Promega, #G7573) were added to each well, incubated with shaking for 20 min in the dark, 100 μL solution was transferred from each well to a 96-well white plate (Corning, #3917), and the luminescence value was read by Biotek Synergy H1 multifunctional microplate reader.
On the technique in general: Cellular ATP, detected with luciferase, serves as a proxy for viable cell number.

Data set [3] relates to MV4-11 (leukemia) cells. Briefly: In vitro cell proliferation inhibition assay (CellTiter-Glo), MV4-11. The conditions noted are these: MV4-11 cells. It counts as cell-based, human. On the procedure:
as §1, §2
MV-4-11 cells were cultured in IMDM medium (containing 20% FBS), each well of a 96-well culture plate was inoculated with about 10000 cells, and treated with different concentrations (0-10 μM) of compounds to be tested in triplex. Blank wells (containing medium only) and control wells (inoculated with cells but not treated with drug) were set. Cells were cultured for 120 hours, 40 μL Cell Titer-Glo solution was added to each well, incubated with shaking for 20 min in the dark, 100 μL solution was transferred from each well to a 96-well white plate, and the luminescence value was read by Biotek Synergy H1 multifunctional microplate reader. Inhibition rate (%)=100%×(control well−test well)/(control well−blank well)

Data set [4] can be described thus: In vitro liver microsomal stability assay, human. Conditions: human liver microsomes, final concentration 2.0 nM, with or without NADPH, within 60 minutes; read-out: Human liver microsomes t1/2. It counts as in vitro ADME. On the procedure:
(§3) Experiments on the stability of the compound of the present disclosure in liver microsomes were performed. The compounds to be tested (final concentration: 2.0 nM) were co-incubated with human/mouse liver microsomes with or without NADPH, and the concentration of compounds in the incubation supernatant was detected within 60 minutes.
Background: Microsomes from liver hold many membrane-bound enzymes, among them those of drug oxidation.

The nature of data set [5]: In vitro liver microsomal stability assay, mouse. Type of data set: in vitro ADME. Conditions: mouse liver microsomes, final concentration 2.0 nM, with or without NADPH, within 60 minutes; read-out: Mouse liver microsomes t1/2. The method, then: as §3
The nature of data set [6]: In vivo pharmacokinetics assay in mice. Conditions: mouse; male ICR mice, oral gavage 10 mg/kg, plasma. The method, then:
The in vivo pharmacokinetics of the compounds was studied.
Male ICR mice (3 in each group) were orally administered by gavage with a dose of 10 mg/kg. Plasma samples were collected before (0 h) and after administration (0.25, 0.5, 1, 2, 4, 6, 8, 24 h), and the collected samples were analyzed by LC/MS and data were collected. The collected analytical data were used to calculate the relevant pharmacokinetic parameters by Analyst v1.6.2 (AB Applied Biosystems Company, USA).

ATR kinase, sequence (Q13535 whole entry): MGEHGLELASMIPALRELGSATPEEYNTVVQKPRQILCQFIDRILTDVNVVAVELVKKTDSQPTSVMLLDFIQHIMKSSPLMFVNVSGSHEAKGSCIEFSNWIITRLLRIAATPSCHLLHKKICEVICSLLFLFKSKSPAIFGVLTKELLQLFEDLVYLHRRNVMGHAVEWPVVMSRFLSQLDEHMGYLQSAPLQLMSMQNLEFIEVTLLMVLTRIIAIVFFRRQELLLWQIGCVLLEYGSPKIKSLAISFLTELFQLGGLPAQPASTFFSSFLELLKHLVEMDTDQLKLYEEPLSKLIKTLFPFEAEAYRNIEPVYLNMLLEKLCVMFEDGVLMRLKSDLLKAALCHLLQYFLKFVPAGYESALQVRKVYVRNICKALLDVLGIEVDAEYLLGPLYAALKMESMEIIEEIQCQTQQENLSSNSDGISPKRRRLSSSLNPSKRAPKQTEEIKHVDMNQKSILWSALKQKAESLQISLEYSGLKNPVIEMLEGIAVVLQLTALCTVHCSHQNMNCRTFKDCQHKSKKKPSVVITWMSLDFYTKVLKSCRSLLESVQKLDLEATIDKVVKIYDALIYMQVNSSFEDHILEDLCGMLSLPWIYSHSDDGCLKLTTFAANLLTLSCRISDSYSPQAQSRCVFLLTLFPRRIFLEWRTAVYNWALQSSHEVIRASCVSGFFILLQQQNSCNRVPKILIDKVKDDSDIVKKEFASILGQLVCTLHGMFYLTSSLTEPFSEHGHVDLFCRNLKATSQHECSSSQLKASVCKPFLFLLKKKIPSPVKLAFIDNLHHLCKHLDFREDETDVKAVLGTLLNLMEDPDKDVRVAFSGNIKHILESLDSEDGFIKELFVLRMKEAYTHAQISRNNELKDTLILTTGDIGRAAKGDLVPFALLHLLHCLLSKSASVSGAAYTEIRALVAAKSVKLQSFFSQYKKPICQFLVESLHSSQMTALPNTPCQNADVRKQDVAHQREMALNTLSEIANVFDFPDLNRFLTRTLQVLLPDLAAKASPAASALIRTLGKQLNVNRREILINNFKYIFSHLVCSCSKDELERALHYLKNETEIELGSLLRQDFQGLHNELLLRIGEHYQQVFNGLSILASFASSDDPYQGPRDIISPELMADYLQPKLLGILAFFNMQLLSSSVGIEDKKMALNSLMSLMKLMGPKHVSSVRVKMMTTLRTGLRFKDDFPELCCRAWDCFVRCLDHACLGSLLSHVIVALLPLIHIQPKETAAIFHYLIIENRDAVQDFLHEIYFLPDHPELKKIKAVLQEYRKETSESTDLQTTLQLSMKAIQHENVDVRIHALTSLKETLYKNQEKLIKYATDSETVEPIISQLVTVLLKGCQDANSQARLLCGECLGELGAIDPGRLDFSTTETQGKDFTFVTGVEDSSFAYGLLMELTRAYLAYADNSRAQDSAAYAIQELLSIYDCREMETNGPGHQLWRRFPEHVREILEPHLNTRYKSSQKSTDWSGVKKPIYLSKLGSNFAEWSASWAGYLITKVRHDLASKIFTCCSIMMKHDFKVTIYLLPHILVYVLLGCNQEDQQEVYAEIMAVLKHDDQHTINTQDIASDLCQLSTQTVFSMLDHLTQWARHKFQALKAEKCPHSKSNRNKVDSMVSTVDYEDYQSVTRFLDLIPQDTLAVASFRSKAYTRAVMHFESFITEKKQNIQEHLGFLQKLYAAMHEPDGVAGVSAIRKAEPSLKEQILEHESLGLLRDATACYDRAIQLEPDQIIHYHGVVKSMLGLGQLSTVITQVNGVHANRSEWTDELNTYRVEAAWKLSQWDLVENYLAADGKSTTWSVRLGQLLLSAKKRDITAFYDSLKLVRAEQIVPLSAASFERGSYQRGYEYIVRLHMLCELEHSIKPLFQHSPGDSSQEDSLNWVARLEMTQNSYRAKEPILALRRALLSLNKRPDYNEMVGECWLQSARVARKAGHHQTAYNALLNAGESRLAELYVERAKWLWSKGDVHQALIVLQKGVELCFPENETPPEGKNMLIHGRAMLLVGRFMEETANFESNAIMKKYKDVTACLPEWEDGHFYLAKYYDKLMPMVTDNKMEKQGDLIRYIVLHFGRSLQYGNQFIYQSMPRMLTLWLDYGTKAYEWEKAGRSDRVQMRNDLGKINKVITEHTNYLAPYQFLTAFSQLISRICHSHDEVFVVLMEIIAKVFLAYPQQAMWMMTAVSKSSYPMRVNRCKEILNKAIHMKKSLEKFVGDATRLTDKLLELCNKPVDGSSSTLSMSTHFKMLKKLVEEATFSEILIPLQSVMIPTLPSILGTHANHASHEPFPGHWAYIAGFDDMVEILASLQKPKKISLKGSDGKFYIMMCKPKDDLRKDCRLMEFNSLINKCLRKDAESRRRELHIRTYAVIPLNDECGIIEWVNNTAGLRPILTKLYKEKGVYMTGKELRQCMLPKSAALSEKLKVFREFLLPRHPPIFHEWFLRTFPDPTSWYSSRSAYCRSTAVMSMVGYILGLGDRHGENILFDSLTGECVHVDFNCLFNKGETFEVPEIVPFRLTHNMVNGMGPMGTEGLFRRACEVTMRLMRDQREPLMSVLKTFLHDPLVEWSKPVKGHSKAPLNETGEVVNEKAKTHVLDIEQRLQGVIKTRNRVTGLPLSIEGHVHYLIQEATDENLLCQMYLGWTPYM
ATR kinase, sequence (Q8WXE1 whole entry partner): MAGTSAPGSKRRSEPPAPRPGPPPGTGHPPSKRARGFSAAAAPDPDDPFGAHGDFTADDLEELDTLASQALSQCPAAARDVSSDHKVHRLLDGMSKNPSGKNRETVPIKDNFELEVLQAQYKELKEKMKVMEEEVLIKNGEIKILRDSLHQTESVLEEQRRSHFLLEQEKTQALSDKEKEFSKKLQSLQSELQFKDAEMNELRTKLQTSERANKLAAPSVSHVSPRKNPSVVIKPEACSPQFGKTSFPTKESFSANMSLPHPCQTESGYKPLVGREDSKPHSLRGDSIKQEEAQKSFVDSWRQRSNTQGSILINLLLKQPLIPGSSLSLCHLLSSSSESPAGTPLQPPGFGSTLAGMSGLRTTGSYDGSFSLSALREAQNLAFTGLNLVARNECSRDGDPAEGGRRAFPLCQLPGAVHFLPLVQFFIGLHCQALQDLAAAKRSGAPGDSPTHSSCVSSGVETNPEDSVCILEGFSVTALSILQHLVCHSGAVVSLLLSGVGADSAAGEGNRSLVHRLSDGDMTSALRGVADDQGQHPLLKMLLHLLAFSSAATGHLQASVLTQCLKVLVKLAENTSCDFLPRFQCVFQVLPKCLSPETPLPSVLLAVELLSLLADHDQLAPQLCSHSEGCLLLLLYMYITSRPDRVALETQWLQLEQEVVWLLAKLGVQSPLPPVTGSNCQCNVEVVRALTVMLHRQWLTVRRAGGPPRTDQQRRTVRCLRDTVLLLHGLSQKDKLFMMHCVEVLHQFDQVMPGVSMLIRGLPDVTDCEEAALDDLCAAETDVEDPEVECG

Regarding `Cc1nn(C2CCNCC2)c(C(F)(F)F)c1-c1cc(N2CCOC[C@H]2C)nc(-c2ccnc3[nH]ccc23)n1` [Compound D1], the IC50 (commonly the concentration that inhibits the measured activity by half) stood at 5 nM in data set [1]; 260 nM in data set [2] (Homo sapiens); 120 nM in data set [3] (Homo sapiens, MV4-11, 120 h). Also, the half-life at 2 nM in data set [4] was determined as 5.63 h; in data set [5], 1.03 h.

Turning to `Cc1nn(C2CCNCC2)c(C(F)(F)F)c1-c1cc(N2CCOC[C@H]2C)nc(-c2cccc3[nH]ccc23)n1` [Compound D17], the IC50 turned out to be 1 nM in data set [1]; 230 nM in data set [2] (Homo sapiens); 140 nM in data set [3] (Homo sapiens, MV4-11, 120 h). Besides, the results for the half-life at 2 nM in data set [4] and in data set [5] were 5.05 h and 2.83 h, respectively.

For the compound `CNc1nc2ccccc2n1-c1nc(-c2c(C)nn(C3CCNCC3)c2C(F)(F)F)cc(N2CCOC[C@H]2C)n1` [Compound D24], the IC50 in data set [2] (Homo sapiens) is 120 nM. The IC50 in data set [3] (Homo sapiens, MV4-11, 120 h) stood at 80 nM. For the same compound, the half-life at 2 nM in data set [4] came out at 3.38 h. Moreover, the half-life at 2 nM in data set [5] stood at 1.83 h. In data set [6], the AUC – broadly, the area under the concentration-time curve, a measure of exposure – was 5450 ng·h/mL; the Cmax (as a rule, the highest concentration seen after dosing) was 467 ng/mL; the Tmax – broadly, the time at which the peak concentration occurs – amounted to 5.3 h; the half-life is 3.1 h.

Take `Cc1nn(C2CCNCC2)c(C(F)(F)F)c1-c1cc(N2CCOC[C@H]2C)nc(-c2cc(F)cc3[nH]ccc23)n1` [Compound D28]: the IC50 in data set [1] is < 1 nM. The IC50 in data set [2] (Homo sapiens) was 280 nM. Moreover, the IC50 in data set [3] (Homo sapiens, MV4-11, 120 h) was determined as 230 nM. In addition, in data set [6], the AUC is 2160 ng·h/mL, the peak level (Cmax) was 199 ng/mL, the Tmax worked out at 4.7 h and the half-life is 3.9 h.

As to `CNc1nc2cc(F)ccc2n1-c1nc(-c2c(C(F)(F)F)nn(CS(C)(=O)=O)c2C)cc(N2CCOC[C@H]2C)n1` [Compound D42], the IC50 is 97 nM in data set [1]; 2010 nM in data set [2] (Homo sapiens); 1730 nM in data set [3] (Homo sapiens, MV4-11, 120 h).

As to `CNc1nc2ccccc2n1-c1nc(-c2c(C)nn(CS(C)(=O)=O)c2C(F)(F)F)cc(N2CCOC[C@H]2C)n1` [Compound D43], the IC50 in data set [1] amounted to 19 nM; in data set [2] (Homo sapiens), 210 nM; in data set [3] (Homo sapiens, MV4-11, 120 h), 540 nM.

As for `CNc1nc2ccccc2n1-c1nc(-c2c(C(F)(F)F)nn(CS(C)(=O)=O)c2C)cc(N2CCOC[C@H]2C)n1` [Compound D44], the IC50 is 34 nM in data set [1]; 790 nM in data set [2] (Homo sapiens); 680 nM in data set [3] (Homo sapiens, MV4-11, 120 h).

Consider `CNc1nc2ccccc2n1-c1nc(-c2c(C(F)(F)F)nn(C3CCCNC3)c2C)cc(N2CCOC[C@H]2C)n1` (stereo partly shown) [Compound D45], for which the IC50 in data set [1] came out at 10 nM; in data set [2] it was 920 nM; in data set [3] (120 hours), 640 nM.

As for `Cc1nn(C2CCNCC2)c(C(F)(F)F)c1-c1cc(N2CCOC[C@H]2C)nc(-n2cnc3ccccc32)n1` [Compound D46], the IC50 in data set [1] came to 6 nM; in data set [2] it was 1330 nM; in data set [3] (120 hours) it was 530 nM.

In the case of `Cc1c(-c2cc(N3CCOC[C@H]3C)nc(-c3cc(F)cc4[nH]ccc34)n2)c(C(F)(F)F)nn1C1CCNCC1` [Compound D47], the IC50 in data set [1] stood at 5 nM; in data set [2], 600 nM; in data set [3] (120 hours), 550 nM.

In the case of `CNc1nc2ccccc2n1-c1nc(-c2c(C)nn(C3CCNCC3)c2C(F)(F)F)cc(C23CCOCC2C3)n1` (stereo not shown) [Compound D48], the figures for the IC50 in data set [1], in data set [2] and in data set [3] (120 hours) were 2 nM, 550 nM and 200 nM, respectively.

For the compound `Cc1nn(C2CCNCC2)c(C(F)(F)F)c1-c1cc(C23CCOCC2C3)nc(-c2cc(F)cc3[nH]ccc23)n1` (stereo not shown) [Compound D49], the IC50 in data set [1] amounted to 2 nM; in data set [2], 500 nM; in data set [3] (120 hours), 550 nM.

As for `CNc1nc2cc(F)ccc2n1-c1nc(-c2c(C)nn(CC3(C)COC3)c2C(F)(F)F)cc(N2CCOC[C@H]2C)n1` [Compound D51], the IC50 is 32 nM in data set [1], 680 nM in data set [2] and 660 nM in data set [3] (120 hours).

`Cc1nn(C[C@@H]2CCCN2)c(C(F)(F)F)c1-c1cc(N2CCOC[C@H]2C)nc(-c2cc(F)cc3[nH]ccc23)n1` [Compound D52]: the IC50 in data set [1] is 2 nM; in data set [2], 370 nM; in data set [3] (120 hours) it was 590 nM.

In the case of `Cc1nn(C[C@H]2CCCN2)c(C(F)(F)F)c1-c1cc(N2CCOC[C@H]2C)nc(-c2cc(F)cc3[nH]ccc23)n1` [Compound D53], the IC50 was 4 nM in data set [1], 710 nM in data set [2] and 620 nM in data set [3] (120 hours).

For the compound `Cc1nn([C@H]2CCNCC2(F)F)c(C)c1-c1cc(N2CCOC[C@H]2C)nc(-c2cc(F)cc3[nH]ccc23)n1` [Compound D54a], the IC50 stood at 4 nM in data set [1]; 180 nM in data set [2] (Homo sapiens); 90 nM in data set [3] (Homo sapiens, MV4-11, 120 h).

As for `Cc1nn([C@@H]2CCNCC2(F)F)c(C)c1-c1cc(N2CCOC[C@H]2C)nc(-c2cc(F)cc3[nH]ccc23)n1` [Compound D54b], the IC50 came out at 13 nM in data set [1]; 440 nM in data set [2] (Homo sapiens); 260 nM in data set [3] (Homo sapiens, MV4-11, 120 h).

As to `Cc1nn(C(=O)N2CCNCC2)c(C)c1-c1cc(N2CCOC[C@H]2C)nc(-c2cc(F)cc3[nH]ccc23)n1` [Compound D55], the values for the IC50 in data set [1], in data set [2] and in data set [3] (120 hours) were 3 nM, 190 nM and 220 nM, respectively.

As to `CNc1nc2ccccc2n1-c1nc(-c2c(C(F)(F)F)nn(C3CCNCC3)c2C)cc(N2CCOC[C@H]2C)n1` [Compound D56], the IC50 was found to be 9 nM in data set [1], 440 nM in data set [2] and 320 nM in data set [3] (120 hours).

`Cc1nn(C2CCNCC2(F)F)c(C)c1-c1cc(N2CCOC[C@H]2C)nc(-c2ccnc3[nH]ccc23)n1` (stereo partly shown) [Compound D57]: the values for the IC50 in data set [1], in data set [2] and in data set [3] (120 hours) were 16 nM, 410 nM and 220 nM, respectively.
